Measured values from patent US9279003B2, “Analogs of sodium channel peptide toxin” (priority 2010, dated 2016).
Where a SMILES comes first, the peptide text is derived from it. Bridges are numbered along the chain shown (N, C = ends). [ ]: non-standard residue; d: D form. NMeL = CN[C@@H](CC(C)C)C(=O)O; αMeL = CC(C)C[C@](C)(N)C(=O)O

Key:
Nav1.2 (rBIIa) = format: cell-based, rat
human Nav1.7 = human Nav1.7 (Homo sapiens, UniProt Q15858); assay: cell-based; format: cell-based
Sequence of human Nav1.7 (Q15858 other isoform, or with tags, fused parts or gaps): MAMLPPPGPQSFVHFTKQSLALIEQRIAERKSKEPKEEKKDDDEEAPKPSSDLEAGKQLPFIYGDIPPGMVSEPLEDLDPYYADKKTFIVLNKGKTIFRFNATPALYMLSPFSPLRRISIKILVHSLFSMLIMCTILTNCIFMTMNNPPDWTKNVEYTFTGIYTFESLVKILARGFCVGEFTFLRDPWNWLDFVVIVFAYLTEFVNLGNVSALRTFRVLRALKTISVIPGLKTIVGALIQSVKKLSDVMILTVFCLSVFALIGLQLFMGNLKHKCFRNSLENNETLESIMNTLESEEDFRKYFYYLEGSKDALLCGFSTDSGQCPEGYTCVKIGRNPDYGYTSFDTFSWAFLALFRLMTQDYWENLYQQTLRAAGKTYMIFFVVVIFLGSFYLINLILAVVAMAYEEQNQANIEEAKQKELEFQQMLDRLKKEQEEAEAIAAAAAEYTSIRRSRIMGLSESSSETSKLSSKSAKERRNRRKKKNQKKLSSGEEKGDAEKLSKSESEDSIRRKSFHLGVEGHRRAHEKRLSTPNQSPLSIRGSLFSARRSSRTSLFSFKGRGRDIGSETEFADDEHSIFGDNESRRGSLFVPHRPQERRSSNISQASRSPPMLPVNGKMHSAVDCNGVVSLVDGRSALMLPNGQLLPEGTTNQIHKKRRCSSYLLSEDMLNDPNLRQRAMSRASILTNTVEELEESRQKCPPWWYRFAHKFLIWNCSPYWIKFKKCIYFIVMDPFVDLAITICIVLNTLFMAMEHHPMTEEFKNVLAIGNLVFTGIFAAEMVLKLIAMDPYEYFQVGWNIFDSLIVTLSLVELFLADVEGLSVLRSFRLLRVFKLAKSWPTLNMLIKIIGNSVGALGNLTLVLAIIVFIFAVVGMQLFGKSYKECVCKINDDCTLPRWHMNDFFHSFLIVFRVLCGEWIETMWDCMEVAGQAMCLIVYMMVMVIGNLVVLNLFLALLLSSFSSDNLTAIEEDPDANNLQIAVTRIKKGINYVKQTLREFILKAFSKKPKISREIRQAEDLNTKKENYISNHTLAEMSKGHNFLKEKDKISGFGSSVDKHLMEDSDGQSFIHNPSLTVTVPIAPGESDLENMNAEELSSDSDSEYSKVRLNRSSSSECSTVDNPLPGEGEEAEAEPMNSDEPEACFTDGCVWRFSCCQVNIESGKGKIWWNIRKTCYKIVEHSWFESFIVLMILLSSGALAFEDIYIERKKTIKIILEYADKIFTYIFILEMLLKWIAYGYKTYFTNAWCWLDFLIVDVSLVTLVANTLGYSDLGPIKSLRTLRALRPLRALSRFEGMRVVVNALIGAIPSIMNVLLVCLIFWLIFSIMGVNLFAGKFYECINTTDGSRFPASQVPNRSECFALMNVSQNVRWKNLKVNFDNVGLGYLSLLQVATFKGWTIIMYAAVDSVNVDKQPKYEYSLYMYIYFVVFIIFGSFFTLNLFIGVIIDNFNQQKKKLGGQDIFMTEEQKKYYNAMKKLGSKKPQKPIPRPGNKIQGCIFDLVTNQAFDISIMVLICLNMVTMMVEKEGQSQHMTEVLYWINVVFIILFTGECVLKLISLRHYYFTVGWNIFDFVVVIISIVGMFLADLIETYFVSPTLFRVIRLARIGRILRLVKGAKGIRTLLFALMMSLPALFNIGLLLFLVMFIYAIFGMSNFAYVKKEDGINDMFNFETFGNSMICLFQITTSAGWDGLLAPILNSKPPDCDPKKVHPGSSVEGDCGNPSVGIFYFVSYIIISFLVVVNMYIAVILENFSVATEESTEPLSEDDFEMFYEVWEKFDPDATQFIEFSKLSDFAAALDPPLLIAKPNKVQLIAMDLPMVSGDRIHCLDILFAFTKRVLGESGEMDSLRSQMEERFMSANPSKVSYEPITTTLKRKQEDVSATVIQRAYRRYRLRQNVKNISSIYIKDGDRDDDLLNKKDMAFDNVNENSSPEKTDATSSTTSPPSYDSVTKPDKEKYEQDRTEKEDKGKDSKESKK

| Compound | IC50 (Nav1.2 (rBIIa)) | IC50 (human Nav1.7) |
| --- | --- | --- |
| CC[C@H](C)[C@H](NC(=O)[C@H](CCCCN)NC(=O)[C@H](CCCCN)NC(=O)[C@H](CCCCN)NC(=O)[C@@H]1CSSC[C@@H]2NC(=O)[C@H](CCCCN)NC(=O)[C@H](CCCNC(=N)N)NC(=O)[C@H](C)NC(=O)[C@H](CO)NC(=O)[C@H](CC(=O)O)NC(=O)[C@@H]3CSSC[C@H](NC(=O)[C@H](C(C)C)NC(=O)[C@H](CC(C)C)NC(=O)CNC(=O)[C@H](CCC(=O)O)NC(=O)[C@H](CSSC[C@H](NC(=O)[C@@H](N)Cc4ccc(O)cc4)C(=O)N[C@@H](CCC(N)=O)C(=O)N[C@@H](CCCCN)C(=O)N[C@@H](Cc4c[nH]c5ccccc45)C(=O)N[C@@H](CCSC)C(=O)N[C@@H](Cc4c[nH]c5ccccc45)C(=O)N[C@@H]([C@@H](C)O)C(=O)N3)NC2=O)C(=O)N[C@@H](CCCNC(=N)N)C(=O)N[C@@H](CC(C)C)C(=O)N[C@@H](Cc2c[nH]c3ccccc23)C(=O)N1)C(=O)N[C@@H](CC(C)C)C(=O)N[C@@H](Cc1c[nH]c2ccccc12)C(=O)O [compound 9] (H-YCQKWMWTCDSARKCCEGLVCRLWCKKKILW-OH; disulfide 2-16, 9-21, 15-25) | 33 nM | 1 nM |
| CC[C@H](C)[C@H](NC(=O)[C@H](CC(C)C)NC(=O)[C@H](CCCCN)NC(=O)[C@H](CCCCN)NC(=O)[C@H](CCCCN)NC(=O)[C@@H]1CSSC[C@@H]2NC(=O)[C@H](CCCCN)NC(=O)[C@H](CCCNC(=N)N)NC(=O)[C@H](C)NC(=O)[C@H](CO)NC(=O)[C@H](CC(=O)O)NC(=O)[C@@H]3CSSC[C@H](NC(=O)[C@H](C(C)C)NC(=O)[C@H](CC(C)C)NC(=O)CNC(=O)[C@H](CCC(=O)O)NC(=O)[C@H](CSSC[C@H](NC(=O)[C@@H](N)Cc4ccc(O)cc4)C(=O)N[C@@H](CCC(N)=O)C(=O)N[C@@H](CCCCN)C(=O)N[C@@H](Cc4c[nH]c5ccccc45)C(=O)N[C@@H](CCSC)C(=O)N[C@@H](Cc4c[nH]c5ccccc45)C(=O)N[C@@H]([C@@H](C)O)C(=O)N3)NC2=O)C(=O)N[C@@H](CCCNC(=N)N)C(=O)N[C@@H](CC(C)C)C(=O)N[C@@H](Cc2c[nH]c3ccccc23)C(=O)N1)C(=O)O [compound 10] (H-YCQKWMWTCDSARKCCEGLVCRLWCKKKLI-OH; disulfide 2-16, 9-21, 15-25) | 98 ± 10 nM | 4 nM |
| CC[C@H](C)[C@H](NC(=O)[C@](C)(CC(C)C)NC(=O)[C@H](CCCCN)NC(=O)[C@H](CCCCN)NC(=O)[C@H](CCCCN)NC(=O)[C@@H]1CSSC[C@@H]2NC(=O)[C@H](CCCCN)NC(=O)[C@H](CCCNC(=N)N)NC(=O)[C@H](C)NC(=O)[C@H](CO)NC(=O)[C@H](CC(=O)O)NC(=O)[C@@H]3CSSC[C@H](NC(=O)[C@H](C(C)C)NC(=O)[C@H](CC(C)C)NC(=O)CNC(=O)[C@H](CCC(=O)O)NC(=O)[C@H](CSSC[C@H](NC(=O)[C@@H](N)Cc4ccc(O)cc4)C(=O)N[C@@H](CCC(N)=O)C(=O)N[C@@H](CCCCN)C(=O)N[C@@H](Cc4c[nH]c5ccccc45)C(=O)N[C@@H](CCSC)C(=O)N[C@@H](Cc4c[nH]c5ccccc45)C(=O)N[C@@H]([C@@H](C)O)C(=O)N3)NC2=O)C(=O)N[C@@H](CCCNC(=N)N)C(=O)N[C@@H](CC(C)C)C(=O)N[C@@H](Cc2c[nH]c3ccccc23)C(=O)N1)C(=O)O [compound 11] (H-YCQKWMWTCDSARKCCEGLVCRLWCKKK[αMeL]I-OH; disulfide 2-16, 9-21, 15-25) | 342 ± 73 nM | 10 ± 1 nM |
| CC[C@H](C)[C@H](NC(=O)[C@H](CC(C)C)N(C)C(=O)[C@H](CCCCN)NC(=O)[C@H](CCCCN)NC(=O)[C@H](CCCCN)NC(=O)[C@@H]1CSSC[C@@H]2NC(=O)[C@H](CCCCN)NC(=O)[C@H](CCCNC(=N)N)NC(=O)[C@H](C)NC(=O)[C@H](CO)NC(=O)[C@H](CC(=O)O)NC(=O)[C@@H]3CSSC[C@H](NC(=O)[C@H](C(C)C)NC(=O)[C@H](CC(C)C)NC(=O)CNC(=O)[C@H](CCC(=O)O)NC(=O)[C@H](CSSC[C@H](NC(=O)[C@@H](N)Cc4ccc(O)cc4)C(=O)N[C@@H](CCC(N)=O)C(=O)N[C@@H](CCCCN)C(=O)N[C@@H](Cc4c[nH]c5ccccc45)C(=O)N[C@@H](CCSC)C(=O)N[C@@H](Cc4c[nH]c5ccccc45)C(=O)N[C@@H]([C@@H](C)O)C(=O)N3)NC2=O)C(=O)N[C@@H](CCCNC(=N)N)C(=O)N[C@@H](CC(C)C)C(=O)N[C@@H](Cc2c[nH]c3ccccc23)C(=O)N1)C(=O)O [compound 12] (H-YCQKWMWTCDSARKCCEGLVCRLWCKKK[NMeL]I-OH; disulfide 2-16, 9-21, 15-25) | 138 ± 40 nM | 528 ± 100 nM |
| CC[C@H](C)[C@H](NC(=O)[C@H](CCCCN)NC(=O)[C@H](CCCCN)NC(=O)[C@@H]1CSSC[C@@H]2NC(=O)[C@H](CCCCN)NC(=O)[C@H](CCCNC(=N)N)NC(=O)[C@H](C)NC(=O)[C@H](CO)NC(=O)[C@H](CC(=O)O)NC(=O)[C@@H]3CSSC[C@H](NC(=O)[C@H](C(C)C)NC(=O)[C@H](CC(C)C)NC(=O)CNC(=O)[C@H](CCC(=O)O)NC(=O)[C@H](CSSC[C@H](NC(=O)[C@@H](N)Cc4ccc(O)cc4)C(=O)N[C@@H](CCC(N)=O)C(=O)N[C@@H](CCCCN)C(=O)N[C@@H](Cc4c[nH]c5ccccc45)C(=O)N[C@@H](CCSC)C(=O)N[C@@H](Cc4c[nH]c5ccccc45)C(=O)N[C@@H]([C@@H](C)O)C(=O)N3)NC2=O)C(=O)N[C@@H](CCCNC(=N)N)C(=O)N[C@@H](CC(C)C)C(=O)N[C@@H](Cc2c[nH]c3ccccc23)C(=O)N1)C(=O)N[C@@H](CC(C)C)C(=O)N[C@@H](Cc1c[nH]c2ccccc12)C(=O)O [compound 13] (H-YCQKWMWTCDSARKCCEGLVCRLWCKKILW-OH; disulfide 2-16, 9-21, 15-25) | 50 ± 10 nM | 3 nM |
| CC[C@H](C)[C@H](NC(=O)[C@H](CCCCN)NC(=O)[C@H](CCCCN)NC(=O)[C@@H]1CSSC[C@@H]2NC(=O)[C@H](CCCCN)NC(=O)[C@H](CCCNC(=N)N)NC(=O)[C@H](C)NC(=O)[C@H](CO)NC(=O)[C@H](CC(=O)O)NC(=O)[C@@H]3CSSC[C@H](NC(=O)[C@H](C(C)C)NC(=O)[C@H](CC(C)C)NC(=O)CNC(=O)[C@H](CCC(=O)O)NC(=O)[C@H](CSSC[C@H](NC(=O)[C@@H](N)Cc4ccc(O)cc4)C(=O)N[C@@H](CCC(N)=O)C(=O)N[C@@H](CCCCN)C(=O)N[C@@H](Cc4c[nH]c5ccccc45)C(=O)N[C@@H](CCSC)C(=O)N[C@@H](Cc4c[nH]c5ccccc45)C(=O)N[C@@H]([C@@H](C)O)C(=O)N3)NC2=O)C(=O)N[C@@H](CCCNC(=N)N)C(=O)N[C@@H](CC(C)C)C(=O)N[C@@H](Cc2c[nH]c3ccccc23)C(=O)N1)C(=O)N[C@H](C(=O)N[C@@H](Cc1c[nH]c2ccccc12)C(=O)O)[C@@H](C)CC [compound 14] (H-YCQKWMWTCDSARKCCEGLVCRLWCKKIIW-OH; disulfide 2-16, 9-21, 15-25) | 45 nM | 5 ± 1 nM |
